Here are results for two compounds from patent US8178501B2, “Antibiotic combinations for providing total solution to the treatment of infections” (priority 2004, dated 2012).

Holding throughout (assay): Bacterial Susceptibility Test, zone size
Holding throughout (assay type): cell-based

One test relates to Pseudomonas auriginosa. On the procedure: (§1) The combination of amikacin and cefepime on different microorganisms was taken to analyze the efficiency of combination in comparison with the individual components of the drug. Different concentrations were selected mentioned to as highest, high, low and lowest in the data. Zone size was determined in mm.
In another test the test system is E. coli. How it is done: as §1
For a further test, the system named is Klebsiella pneumoniae. How it is done:
as §1

The test system of another test is Streptococcus pneumoniae. On the procedure: as §1
In the next test the test system is Staphylococcus aureus. On the procedure:
as §1

Another test has as its system Enterococcus faecalis. On the procedure: as §1

Structures can show the parent of a compound that is named as a salt.

For the compound `NCC[C@H](O)C(=O)N[C@@H]1C[C@H](N)[C@@H](O[C@H]2O[C@H](CN)[C@@H](O)[C@H](O)[C@H]2O)[C@H](O)[C@H]1O[C@H]1O[C@H](CO)[C@@H](O)[C@H](N)[C@H]1O` [Amikacin, D-Streptamine, O-3-amino-3-deoxy-α-d-glucopyranosyl)1→6)-O-[6-amino-6-deoxy-α-D-glucopyranosyl(1→4)]-N^1-(4-amino-2-hydroxy-1-oxobutyl)-2-deoxy-,(S)-,sulfate (1:2)(salt)], the Zone with Pseudomonas auriginosa (concentration High) amounted to 21.81 mm; with Pseudomonas auriginosa (concentration Highest), 26.93 mm; in the test with Pseudomonas auriginosa (concentration Low) it was 16.05 mm; in the test with Pseudomonas auriginosa (concentration Lowest), 09.81 mm; with E. coli (concentration High), 29.02 mm; in the test on E. coli (concentration Highest), 30.90 mm. The Zone turned out to be 22.06 mm in the test on E. coli (concentration Low); 15.02 mm in the test on E. coli (concentration Lowest); 31.25 mm in the test on Klebsiella pneumoniae (concentration High); 34.98 mm in the test on Klebsiella pneumoniae (concentration Highest); 31.02 mm in the test with Klebsiella pneumoniae (concentration Low); 29.98 mm with Klebsiella pneumoniae (concentration Lowest). In addition, the Zone with Streptococcus pneumoniae (concentration High) is given as 24.28 mm; with Streptococcus pneumoniae (concentration Highest), 26.58 mm; in the test on Streptococcus pneumoniae (concentration Low), 18.34 mm; in the test with Streptococcus pneumoniae (concentration Lowest), 12.32 mm; in the test with Staphylococcus aureus (concentration High), 24.42 mm; with Staphylococcus aureus (concentration Highest) it was 28.92 mm. Moreover, the Zone is recorded as 18.79 mm with Staphylococcus aureus (concentration Low); 10.09 mm in the test on Staphylococcus aureus (concentration Lowest); 23.24 mm with Enterococcus faecalis (concentration High); 27.29 mm with Enterococcus faecalis (concentration Highest); 17.97 mm in the test with Enterococcus faecalis (concentration Low); 08.05 mm in the test with Enterococcus faecalis (concentration Lowest).

As to `CO/N=C(\C(=O)N[C@@H]1C(=O)N2C(C(=O)O)=C(C[N+]3(C)CCCC3)CS[C@H]12)c1csc(N)n1.Cl.O.[Cl-]` [Cefepime, 1-[[(6R,7R)-7-[2-(2-amino-4-thiazolyl)-glyoxylamido]-2-carboxy-8-oxo-5-thia-1-azabicyclo[4.2.0]oct-2-en-3-yl]methyl]-1-methyl-pyrrolidinium chloride, 7^2-(Z)-(O-methyloxime), monohydrochloride, monohydrate], the Zone with Pseudomonas auriginosa (concentration High) is given as 27.56 mm; with Pseudomonas auriginosa (concentration Highest) it was 30.94 mm; with Pseudomonas auriginosa (concentration Low) it was 18.81 mm; in the test on Pseudomonas auriginosa (concentration Lowest), 12.08 mm; in the test on E. coli (concentration High), 30.16 mm; in the test with E. coli (concentration Highest) it was 32.24 mm. Further, the Zone in the test with E. coli (concentration Low) is 24.20 mm; in the test on E. coli (concentration Lowest), 16.42 mm; with Klebsiella pneumoniae (concentration High), 32.35 mm; in the test with Klebsiella pneumoniae (concentration Highest), 36.02 mm; with Klebsiella pneumoniae (concentration Low), 31.96 mm; in the test with Klebsiella pneumoniae (concentration Lowest), 30.83 mm. In addition, the Zone in the test on Streptococcus pneumoniae (concentration High) worked out at 28.10 mm; in the test with Streptococcus pneumoniae (concentration Highest), 30.32 mm; in the test on Streptococcus pneumoniae (concentration Low), 23.02 mm; in the test on Streptococcus pneumoniae (concentration Lowest) it was 19.54 mm; in the test with Staphylococcus aureus (concentration High) it was 28.44 mm; in the test on Staphylococcus aureus (concentration Highest) it was 31.06 mm. The Zone in the test on Staphylococcus aureus (concentration Low) amounted to 21.18 mm; with Staphylococcus aureus (concentration Lowest), 16.24 mm; in the test on Enterococcus faecalis (concentration High), 25.52 mm; in the test on Enterococcus faecalis (concentration Highest) it was 28.98 mm; with Enterococcus faecalis (concentration Low) it was 19.92 mm; in the test on Enterococcus faecalis (concentration Lowest) it was 12.65 mm.
